Like-named read-outs stand apart in the source and are kept apart here.
Tests used:
[1] = Storage stability of crystalline Form I (solid form after storage, XRPD); type: physicochemical
Source text: (§1) XRPD of the samples were obtained by using Panalytical X′Pert Pro X-Ray Powder Diffractometer in the range 3-40 degree 2 theta and under tube voltage and current of 45 Kv and 40 mA respectively. Copper radiation of wavelength 1.54 angstrom and Xceletor detector was used. Form II of lamivudine: Not detectable (Limit of detection: 0.5% by XRPD) The stable crystalline Form I of lamivudine obtained from Example 2 was subjected to the following conditions: […]

[2] = Stability of crystalline Form I to milling (solid form after milling, XRPD); type: physicochemical
Source text: as §1, with “In one aspect, a stable crystalline Form I of lamivudine is provided. […] The term milling refers to an act or process of grinding, crushing, pulverizing, powdering, atomizing, pestling, levigating, sifting, sieving, size reducing, or passing through a milling device. […] XRPD of” for “XRPD of”

[3] = during milling and formulation operation; prior-art Form I per WO 2007/119248; cited from earlier work

Row | Compound | Resultant Material after storage ([1]; Stored at 25 ± 2° C. at 60 ± 5% RH for 3 months) | Resultant Material after storage ([1]; Stored at 40 ± 2° C. at 75 ± 5% RH for 1 month) | Resultant Material after storage ([1]; Stored at 40 ± 2° C. at 75 ± 5% RH for 2 months) | Resultant Material after storage ([1]; Stored at 40 ± 2° C. at 75 ± 5% RH for 3 months) | Solid-form stability on storage ([1]; stored up to three months at a temperature up to about 45° C. and at a relative humidity of about 25% to about 85%) | Resultant Material after milling ([2]; Milled in a multimill (2 mm mesh size)) | Conversion of solid form on milling ([2]; pharmaceutical operations such as milling) | Conversion of solid form on milling [3]
1 | Nc1ccn([C@@H]2CS[C@H](CO)O2)c(=O)n1 [Form I obtained from Example 2, (2R,cis)-4-amino-1-(2-hydroxymethyl-1,3-oxathiolan-5-yl)-(1H)-pyrimidin-2-one] | Form I | Form I | Form I | Form I | remains stable | Form I | does not convert to Form II | –
2 | Nc1ccn([C@@H]2CS[C@H](CO)O2)c(=O)n1 [Form I, (2R,cis)-4-amino-1-(2-hydroxymethyl-1,3-oxathiolan-5-yl)-(1H)-pyrimidin-2-one] | – | – | – | – | – | – | – | converts to Form II

Reference: US20100324290A1, “CRYSTALLINE FORM I OF LAMIVUDINE AND ITS PREPARATION” (RANBAXY LABORATORIES LIMITED, priority 2007, published 2010)
